{"source": "patent US20120316106A1", "about": "“SYNERGISTIC ANTIBIOTIC COMBINATIONS AND DERIVATIVES” (YEDA RESEARCH AND DEVELOPMENT CO. LTD., priority 2009, published 2012)", "key": {"[1]": {"test_system": "E. coli cell-free transcription-translation system", "assay": "Inhibition of E. coli cell-free transcription-translation (firefly luciferase readout)", "format": "biochemical", "protocol": "(§1) To address this question, it was first verified that LM binds to the ribosome and inhibits protein synthesis. […] RNA probing was then utilized to follow the binding of LC and LM to the ribosome. For the consistency of structural data, RNA probing experiments were carried out using D. radiodurans large ribosomal subunits. Binding of LC and LM was analyzed using chemical modifying reagents 1-cyclohexyl-3-(2-morpholinoethyl) carbodiimide metho-p-toluene sulfonate (CMCT) and dimethyl sulfate (DMS).\n(§2) Antibiotic binding and inhibition of cell-free translation were determined as described in (Xiong, L. et al., 2005, Antimicrob Agents Chemother 49, 281-288). Inhibition of the peptidyl transferase reaction by LC was performed and analyzed as described in. The data were analyzed using Prism 4 (GraphPad Software). RNA probing was carried out as described in (Moazed, D. and Noller, H. F., 1987, Biochemie 69, 879-884) using D50S.\nThe E. coli cell-free transcription-translation system for circular DNA (Promega) was pre-incubated with varying concentrations of antibiotics for 5 min at 20° C. The reactions (10 μl final volume) were initiated by adding 0.64 μg of pBestLuc plasmid DNA (Promega). Reactions were incubated for 40 min at 20° C. and stopped by chilling on ice. The activity of firefly luciferase synthesized in the reaction was determined in 96-well plates using Bright-Glo Luciferase Assay System (Promega) as recommended by the manufacturer."}, "[2]": {"test_system": "D. radiodurans 50S ribosomal subunits (23S rRNA)", "assay": "RNA probing (chemical footprinting) of 23S rRNA with CMCT and DMS", "format": "binding", "settings": "LC 50 μM, LM 500 μM, D50S 200 nM; for Protection of 23S rRNA residues from CMCT modification: ERY 50 μM", "protocol": "as §1\nSimilar to ERY and other 14 member-ring macrolides, binding of LM results in protection of U2609 from CMCT modification and of A2058 and A2059 from DMS chemical modification performed on the 23S rRNA of D. Radiodurans in complex with the combinations of the antibiotics (FIGS. 6C,D). The idiosyncratic protections of 23S rRNA residues were exploited against CMCT modification, afforded by LC and LM, to interrogate their simultaneous interaction with the ribosome. […] However, the accessibility of these residues to CMCT is not affected by LM or ERY (FIG. 6). […] In contrast, and in agreement with the binding experiments, the LC-mediated protection of U2506 and U2585 is partially relieved upon addition of ERY (FIG. 6D) and ERY-dependent protection of U2609 is partly reversed when LC is present. Thus, while LC and ERY compete for the binding to the ribosome, LC and LM can bind simultaneously to their respective targets in the PTC and NPET.\nas §2\nRNA probing was carried out essentially as described (16, 46) using D. radiodurans 50S ribosomal subunits at 200 nM concentration and antibiotics at the following concentrations: LC—50 μM, LM—500 μM, ERY—50 μM. Prior to addition of the modifying reagents, ribosomal subunits were pre-incubated with the drug 10 min at 37° C. and then 10 min at 20° C."}, "[3]": {"settings": "background statement; cited from earlier work"}, "Gram-positive bacteria": {"test_system": "Gram-positive bacteria", "settings": "background statement; cited from earlier work"}, "[4]": {"biological_target": "large ribosomal subunits of D. radiodurans", "assay": "Inhibition of peptidyl transferase (puromycin) reaction, isolated large subunits", "format": "biochemical", "settings": "FIG. 5B, read-out: IC50, inhibition of puromycin reaction (peptide bond formation)", "protocol": "as §2\n(§3) In the reaction catalyzed by large ribosomal subunits, D. radiodurans 50S subunits (200 nM final concentration) were combined in 50 μl of the reaction buffer (20 mM Tris-HCl, pH 8.0, 20 mM MgCl2, 400 mM KCl) with 28 nM [^3H]-fMet-tRNA, 1 mM puromycism at varying concentrations of LC. Reactions were initiated by addition of 25 μl methanol and incubated on ice for 30 min. Reactions were stopped and analyzed as described (Maguire et al., 2005, Mol Cell 20, 427-435). In the ribosome-based puromycin assay, 70S ribosomes of S. aureus (at a final concentration of 200 nM) were preincubated for 15 min at 37° C. in 50 μl of polyamine buffer (20 mM HEPES-KOH, pH 7.6, 6 mM Mg-acetate, 150 mM NH4Cl, 4 mM β-mercaptoethanol, 2 mM spermidine, 0.05 mM spermine) with 600 nM mRNA AAGGAGAUAAACAAUGGGU and 28 nM [^3H]-fMet-tRNA. After addition of varying concentrations of LC, puromycin was added to the final concentration of 0.5 mM and reactions were incubated for 15 m in at 37° C. […]"}, "[5]": {"test_system": "Staphylococcus aureus 70S ribosomes", "assay": "Inhibition of peptidyl transferase (puromycin) reaction, 70S ribosomes", "format": "biochemical", "settings": "S. aureus 70S ribosomes, FIG. 5B; read-out: IC50, inhibition of puromycin reaction (peptide bond formation)", "protocol": "as §2, §3"}, "[6]": {"test_system": "eukaryotic cell-free translation", "settings": "background statement; cited from earlier work"}, "[7]": {"biological_target": "D. radiodurans 50S subunits", "assay": "Competition with 14C-ERY for binding to 50S subunits", "settings": "0.1 μM 50S, 0.1 μM 14C-erythromycin, FIG. 5C; read-out: IC50, displacement of 14C-ERY from D50S", "from_the_text": "S. rochei secretes two antibiotics, a 17-member ring macrocyclic LC and a 14-member ring macrolide, lankamycin (LM). LM is structurally similar to ERY (FIG. 1) and thus it was assumed that it is likely to bind to the ribosome at the site and orientation similar to ERY, namely at the NPET in immediate proximity to the PTC, the LC binding site. […] These observations raised the question whether, similarly to ERY, LM would also compete with LC for ribosome binding.\nas §2\nD. radiodurans 50S subunits (0.1 μM) were preincubated 15 min at 37° C. with 0.1 μM of ^14C-erthromycin (48.8 mCi/mmol, Perkin Elmer) in 100 μl binding buffer (20 mM Tris-HCl, pH 7.5, 10 mM MgCl2, 250 mM NH4Cl, 6 mM β-mercaptoethanol). […] The ribosome-antibiotic complexes were purified by gel filtration in BioGel P30 spin columns as described (Xiong, L. et al. ibid) and the amount of ribosome-bound radioactivity was measured by scintillation counting."}, "[8]": {"settings": "Table 2, read-out: [IC50] for antibiotic inhibition of cell free translation"}, "[9]": {"settings": "FIG. 5A / 5D, read-out: IC50, inhibition of bacterial (E. coli) cell-free transcription-translation"}}, "note": "Entries after “also recorded” stand apart in the source; their conditions may differ. Where two headings read alike, the source gives them in different places."}
{"molecule": "CC[C@H]1OC(=O)[C@H](C)[C@@H](O[C@H]2C[C@@](C)(OC)[C@@H](O)[C@H](C)O2)[C@H](C)[C@@H](O[C@@H]2O[C@H](C)C[C@H](N(C)C)[C@H]2O)[C@](C)(O)C[C@@H](C)C(=O)[C@H](C)[C@@H](O)[C@]1(C)O", "note": "[ERY, erythromycin, reference compound]", "values": [{"measurement": "IC50", "setting": "[1]; [8]", "result": 0.2, "unit": "µM"}, {"measurement": "Protection of 23S rRNA residues from CMCT modification", "setting": "[2]", "result": "strongly protect U2609"}]}
{"molecule": "CC[C@H]1NC(=O)[C@@H](NC(=O)c2ncccc2O)[C@@H](C)OC(=O)[C@H](c2ccccc2)NC(=O)[C@@H]2CC(=O)CCN2C(=O)[C@H](Cc2ccccc2)N(C)C(=O)[C@@H]2CCCN2C1=O", "note": "[Virginiamycin S]", "values": [{"measurement": "IC50", "setting": "[1]; [8]", "result": 2.5, "unit": "µM"}]}
{"molecule": "CO[C@H]1C[C@@H](C)O[C@@H](O[C@@H]2[C@@H](C)[C@H](O[C@H]3C[C@@](C)(OC)[C@H](OC(C)=O)[C@H](C)O3)[C@@H](C)C(=O)O[C@H]([C@@H](C)[C@H](C)O)[C@H](C)[C@H](OC(C)=O)[C@@H](C)C(=O)[C@@](C)(O)C[C@@H]2C)[C@@H]1O", "note": "[LM, lankamycin]", "values": [{"measurement": "Toxicity in animal models", "setting": "[3]", "result": "low toxicity"}, {"measurement": "Antibiotic activity against Gram-positive bacteria", "setting": "Gram-positive bacteria", "result": "weak antibiotic activity"}, {"measurement": "IC50", "setting": "[1]; [9]", "result": "275 ± 36", "unit": "µM"}, {"measurement": "Protection of 23S rRNA residues from CMCT modification", "setting": "[2]", "result": "strongly protect U2609"}, {"measurement": "Protection of 23S rRNA residues from DMS modification", "setting": "[2]", "result": "protects A2059 and A2058 from DMS modification"}]}
{"molecule": "CC1=C\\[C@@H](O)CC(=O)Cc2nc(co2)C(=O)N2CCC=C2C(=O)O[C@H](C(C)C)[C@H](C)/C=C/C(=O)NC\\C=C\\1", "note": "[Virginiamycin M]", "values": [{"measurement": "IC50", "setting": "[1]; [8]", "result": 0.8, "unit": "µM"}]}
{"molecule": "CC(=O)C(=O)N[C@@H]1/C=C(C)/C=C/[C@@H](O)C/C=C(C)/C=C/[C@@H](O)C[C@H]2OC(=O)[C@]1(C)C(=O)[C@@H]2C", "note": "[LC, Lankacidin C]", "values": [{"measurement": "IC50", "setting": "[4]", "result": "10 ± 6", "unit": "µM"}, {"measurement": "IC50", "setting": "[5]", "result": "0.32 ± 0.02", "unit": "µM"}, {"measurement": "Effect on eukaryotic cell-free translation", "setting": "[6]", "result": "little effect"}, {"measurement": "IC50", "setting": "[7]", "result": "0.355 ± 0.026", "unit": "µM"}, {"measurement": "Antibiotic activity against Gram-positive bacteria", "setting": "Gram-positive bacteria", "result": "inhibits growth of Gram-positive bacteria"}, {"measurement": "IC50", "setting": "[1]; [9]", "result": "1.5 ± 0.1", "unit": "µM"}, {"measurement": "Protection of 23S rRNA residues from CMCT modification", "setting": "[2]", "result": "shields U2506 and U2585 from alterations; also recorded: no effect on this nucleotide"}, {"measurement": "Protection of 23S rRNA residues from DMS modification", "setting": "[2]", "result": "A2059 became partially protected from DMS whereas modification of A2058 was increased"}]}
